Patent US9513294B2, “Megastokes amino-triazolyl-BODIPY compounds and applications to live neuron staining and human serum albumin FA1 drug site probing” (National University of Singapore, priority 2012, dated 2016)

Tests used:
[1] = Quantum yield measurements versus Acridine Yellow in EtOH; type: physicochemical; details: for φ (quantum yield): excitation 460 nm; for φ (%): quantum yield
How it was run: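 Fluorescence quantum yield is relative to Acridine Yellow in EtOH (Φ 0.47), with excitation at 460 nm. Integrated emission at 510–700 nm was corrected for absorbance at the excitation wavelength and for solvent refractive index.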

[2] = Absorbance and fluorescence emission spectra (SpectraMax M2); type: physicochemical; details: for λmax Absorp. (nm) / λmax Emission (nm): MKCA compound library; for λmax Absorp. (nm) / λmax Abs. (nm): absorbance maximum; for λmax Emission (nm) / λmax Em. (nm): fluorescence emission maximum; for λmax Abs. (nm) / λmax Em. (nm): MKAC compound library
How it was run: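 Absorbance and emission maxima measured on a SpectraMax M2 spectrophotometer, which also gave quantum yield data; analysis in GraphPrism.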

## CC(=O)Nc1ccc(C2=C3C=CC(N4CCCCC4)=[N+]3[B-](F)(F)n3c2ccc3-n2cc(-c3ccc(C(C)(C)C)cc3)nn2)cc1 [BDCAC-11]
[1]; BDCAC library, Table 3
  φ (quantum yield): 1.4%
[2]; BDCAC library, Table 3
  λmax Absorp.: 465 nm
  λmax Emission: 582 nm

## CCc1ccc(-c2cn(-c3ccc4n3[B-](F)(F)[N+]3=C(N5CCCCC5)C=CC3=C4c3ccc(NC(C)=O)cc3)nn2)cc1 [BDCAC-46]
[1]; BDCAC library, Table 3
  φ (quantum yield): 1.4%
[2]; BDCAC library, Table 3
  λmax Absorp.: 465 nm
  λmax Emission: 578 nm

## CCCCCCCCc1cn(-c2ccc3n2[B-](F)(F)[N+]2=C(N4CCCCC4)C=CC2=C3c2ccc(N)cc2)nn1 [BDC-44]
[1]; BDC library, Table 2
  φ (quantum yield): 0.13%
[2]; BDC library, Table 2
  λmax Absorp.: 475 nm
  λmax Emission: 583 nm

## Cc1ccccc1CNC1=[N+]2C(=C(c3ccc(NC(=O)CCl)cc3)c3ccc(-n4cc(CO)nn4)n3[B-]2(F)F)C=C1 [MKCA101-70]
[1]; MKCA compound library
  φ (%): 21.76%
[2]
  λmax Absorp. (nm): 465 nm
  λmax Emission (nm): 560 nm

## COc1cccc(-c2cn(-c3ccc4n3[B-](F)(F)[N+]3=C(N5CCCCC5)C=CC3=C4c3ccc(NC(=O)CCl)cc3)nn2)c1 [BDCCA-27]
[1]; BDCCA library, Table 4
  φ (quantum yield): 2.3%
[2]; BDCCA library, Table 4
  λmax Absorp.: 463 nm
  λmax Emission: 552 nm

## O=C(CCl)Nc1ccc(C2=C3C=CC(N4CCc5ccccc5C4)=[N+]3[B-](F)(F)n3c2ccc3-n2cc(C3CC3)nn2)cc1 [MKCA66-4]
[1]; MKCA compound library
  φ (%): 3.33%
[2]
  λmax Absorp. (nm): 469 nm
  λmax Emission (nm): 587 nm

## CC1CN(C2=[N+]3C(=C(c4ccc(N)cc4)c4ccc(-n5cc(CN(C)Cc6ccccc6)nn5)n4[B-]3(F)F)C=C2)CC(C)O1 (stereo not drawn) [MK20-18]
[1]; MK library, Table 5
  φ (quantum yield): 0.23%
[2]; MK library, Table 5
  λmax Absorp.: 477 nm
  λmax Emission: 582 nm

## CCCC(C)c1cn(-c2ccc3n2[B-](F)(F)[N+]2=C(N4CCc5ccccc5C4)C=CC2=C3c2ccc(NC(=O)CCl)cc2)nn1 (stereo not drawn) [MKCA66-3]
[1]; MKCA compound library
  φ (%): 3.50%
[2]
  λmax Absorp. (nm): 469 nm
  λmax Emission (nm): 582 nm

## CCCCCCCc1cn(-c2ccc3n2[B-](F)(F)[N+]2=C(N4CCCCC4)C=CC2=C3c2ccc(N)cc2)nn1 [BDC-50]
[1]; BDC library, Table 2
  φ (quantum yield): 0.13%
[2]; BDC library, Table 2
  λmax Absorp.: 475 nm
  λmax Emission: 577 nm

## CC(=O)Nc1ccc(C2=C3C=CC(N4CCCCC4)=[N+]3[B-](F)(F)n3c2ccc3-n2cc(CC(C)C)nn2)cc1 [BDCAC-43]
[1]; BDCAC library, Table 3
  φ (quantum yield): 0.8%
[2]; BDCAC library, Table 3
  λmax Absorp.: 467 nm
  λmax Emission: 581 nm

## CCCc1cn(-c2ccc3n2[B-](F)(F)[N+]2=C(N4CCCCC4)C=CC2=C3c2ccc(NC(=O)CCl)cc2)nn1 [BDCCA-48]
[1]; BDCCA library, Table 4
  φ (quantum yield): 1.4%
[2]; BDCCA library, Table 4
  λmax Absorp.: 466 nm
  λmax Emission: 569 nm

## CC(C)Cc1cn(-c2ccc3n2[B-](F)(F)[N+]2=C(NCc4cc(F)cc(F)c4)C=CC2=C3c2ccc(N)cc2)nn1 [MK412-43]
[1]; MK library, Table 5
  φ (quantum yield): 0.86%
[2]; MK library, Table 5
  λmax Absorp.: 476 nm
  λmax Emission: 564 nm

## CC(=O)Nc1ccc(C2=C3C=CC(N4CCCC4)=[N+]3[B-](F)(F)n3c2ccc3-n2cc(CN(C)Cc3ccccc3)nn2)cc1 [MKAC215-18]
[1]; MKAC compound library
  φ (%): 1.54%
[2]
  λmax Abs. (nm): 461 nm
  λmax Em. (nm): 569 nm

## CC(=O)Nc1ccc(C2=C3C=CC(N(C)Cc4ccccc4)=[N+]3[B-](F)(F)n3c2ccc3-n2cc(C3CCCC3)nn2)cc1 [MKAC195-5]
[1]; MKAC compound library
  φ (%): 4.18%
[2]
  λmax Abs. (nm): 467 nm
  λmax Em. (nm): 578 nm

## CCOc1ccccc1CNC1=[N+]2C(=C(c3ccc(NC(C)=O)cc3)c3ccc(-n4cc(C5CC5)nn4)n3[B-]2(F)F)C=C1 [MKAC103-4]
[1]; MKAC compound library
  φ (%): 24.86%
[2]
  λmax Abs. (nm): 464 nm
  λmax Em. (nm): 565 nm

## CCCc1cn(-c2ccc3n2[B-](F)(F)[N+]2=C(N4CC(C)OC(C)C4)C=CC2=C3c2ccc(NC(C)=O)cc2)nn1 (stereo not drawn) [MKAC20-48]
[1]; MKAC compound library
  φ (%): 2.93%
[2]
  λmax Abs. (nm): 467 nm
  λmax Em. (nm): 581 nm

## O=C(CCl)Nc1ccc(C2=C3C=CC(NCc4cc(F)cc(F)c4)=[N+]3[B-](F)(F)n3c2ccc3-n2cc(CC3CCCCC3)nn2)cc1 [MKCA412-8]
[1]; MKCA compound library
  φ (%): 36.92%
[2]
  λmax Absorp. (nm): 467 nm
  λmax Emission (nm): 564 nm

## CCCCCCCc1cn(-c2ccc3n2[B-](F)(F)[N+]2=C(N4CCCCC4)C=CC2=C3c2ccc(NC(C)=O)cc2)nn1 [BDCAC-50]
[1]; BDCAC library, Table 3
  φ (quantum yield): 1.4%
[2]; BDCAC library, Table 3
  λmax Absorp.: 467 nm
  λmax Emission: 567 nm

## CCCC(C)c1cn(-c2ccc3n2[B-](F)(F)[N+]2=C(N4CCCCC4)C=CC2=C3c2ccc(NC(C)=O)cc2)nn1 (stereo not drawn) [BDCAC-3]
[1]; BDCAC library, Table 3
  φ (quantum yield): 1.5%
[2]; BDCAC library, Table 3
  λmax Absorp.: 467 nm
  λmax Emission: 585 nm

## CC1CN(C2=[N+]3C(=C(c4ccc(N)cc4)c4ccc(-n5cc(C6CCCC6)nn5)n4[B-]3(F)F)C=C2)CC(C)O1 (stereo not drawn) [MK20-5]
[1]; MK library, Table 5
  φ (quantum yield): 0.57%
[2]; MK library, Table 5
  λmax Absorp.: 476 nm
  λmax Emission: 580 nm

## CN(C)Cc1cn(-c2ccc3n2[B-](F)(F)[N+]2=C(N4CCCCC4)C=CC2=C3c2ccc(N)cc2)nn1 [BDC-2]
[1]; BDC library, Table 2
  φ (quantum yield): 0.13%
[2]; BDC library, Table 2
  λmax Absorp.: 469 nm
  λmax Emission: 587 nm

## CCCc1cn(-c2ccc3n2[B-](F)(F)[N+]2=C(N4CCc5ccccc5C4)C=CC2=C3c2ccc(NC(C)=O)cc2)nn1 [MKAC66-48]
[1]; MKAC compound library
  φ (%): 2.14%
[2]
  λmax Abs. (nm): 469 nm
  λmax Em. (nm): 582 nm

## CCOc1ccccc1CNC1=[N+]2C(=C(c3ccc(N)cc3)c3ccc(-n4cc(CC(C)C)nn4)n3[B-]2(F)F)C=C1 [MK103-43]
[1]; MK library, Table 5
  φ (quantum yield): 1.30%
[2]; MK library, Table 5
  λmax Absorp.: 474 nm
  λmax Emission: 563 nm

## CC(=O)Nc1ccc(C2=C3C=CC(N4CCCCC4)=[N+]3[B-](F)(F)n3c2ccc3-n2cc(CO)nn2)cc1 [BDCAC-70]
[1]; BDCAC library, Table 3
  φ (quantum yield): 0.7%
[2]; BDCAC library, Table 3
  λmax Absorp.: 467 nm
  λmax Emission: 583 nm

## CC(=O)Nc1ccc(C2=C3C=CC(N(C)Cc4ccccc4)=[N+]3[B-](F)(F)n3c2ccc3-n2cc(C3CC3)nn2)cc1 [MKAC195-4]
[1]; MKAC compound library
  φ (%): 5.45%
[2]
  λmax Abs. (nm): 466 nm
  λmax Em. (nm): 582 nm

## CC(=O)Nc1ccc(C2=C3C=CC(N4CCCCC4)=[N+]3[B-](F)(F)n3c2ccc3-n2cc(-c3ccc(F)c(F)c3)nn2)cc1 [BDCAC-16]
[1]; BDCAC library, Table 3
  φ (quantum yield): 0.7%
[2]; BDCAC library, Table 3
  λmax Absorp.: 462 nm
  λmax Emission: 586 nm

## CCCCCC(O)c1cn(-c2ccc3n2[B-](F)(F)[N+]2=C(N4CCc5ccccc5C4)C=CC2=C3c2ccc(NC(C)=O)cc2)nn1 (stereo not drawn) [MKAC66-69]
[1]; MKAC compound library
  φ (%): 1.88%
[2]
  λmax Abs. (nm): 469 nm
  λmax Em. (nm): 579 nm

## CCOc1ccccc1CNC1=[N+]2C(=C(c3ccc(NC(C)=O)cc3)c3ccc(-n4cc(CCc5ccccc5)nn4)n3[B-]2(F)F)C=C1 [MKAC103-19]
[1]; MKAC compound library
  φ (%): 29.05%
[2]
  λmax Abs. (nm): 464 nm
  λmax Em. (nm): 562 nm

## O=C(CCl)Nc1ccc(C2=C3C=CC(N4CCCC4)=[N+]3[B-](F)(F)n3c2ccc3-n2cc(CCc3ccccc3)nn2)cc1 [MKCA215-19]
[1]; MKCA compound library
  φ (%): 4.98%
[2]
  λmax Absorp. (nm): 463 nm
  λmax Emission (nm): 573 nm

## Nc1ccc(C2=C3C=CC(N4CCCC4)=[N+]3[B-](F)(F)n3c2ccc3-n2cc(CC3CCCCC3)nn2)cc1 [MK215-8]
[1]; MK library, Table 5
  φ (quantum yield): 0.56%
[2]; MK library, Table 5
  λmax Absorp.: 470 nm
  λmax Emission: 574 nm

## Nc1ccc(C2=C3C=CC(NCc4cc(F)cc(F)c4)=[N+]3[B-](F)(F)n3c2ccc3-n2cc(CO)nn2)cc1 [MK412-70]
[1]; MK library, Table 5
  φ (quantum yield): 1.89%
[2]; MK library, Table 5
  λmax Absorp.: 470 nm
  λmax Emission: 562 nm

## CC(=O)Nc1ccc(C2=C3C=CC(NCc4ccccc4C)=[N+]3[B-](F)(F)n3c2ccc3-n2cc(CCc3ccccc3)nn2)cc1 [MKAC101-19]
[1]; MKAC compound library
  φ (%): 23.26%
[2]
  λmax Abs. (nm): 464 nm
  λmax Em. (nm): 560 nm

## CC(=O)Nc1ccc(C2=C3C=CC(N4CCCCC4)=[N+]3[B-](F)(F)n3c2ccc3-n2cc(-c3cccc(C)c3)nn2)cc1 [BDCAC-45]
[1]; BDCAC library, Table 3
  φ (quantum yield): 3.2%
[2]; BDCAC library, Table 3
  λmax Absorp.: 463 nm
  λmax Emission: 551 nm

## CC(=O)Nc1ccc(C2=C3C=CC(N4CCc5ccccc5C4)=[N+]3[B-](F)(F)n3c2ccc3-n2cc(CN(C)Cc3ccccc3)nn2)cc1 [MKAC66-18]
[1]; MKAC compound library
  φ (%): 1.56%
[2]
  λmax Abs. (nm): 468 nm
  λmax Em. (nm): 585 nm

## CCCC(C)c1cn(-c2ccc3n2[B-](F)(F)[N+]2=C(N4CCCC4)C=CC2=C3c2ccc(N)cc2)nn1 (stereo not drawn) [MK215-3]
[1]; MK library, Table 5
  φ (quantum yield): 0.26%
[2]; MK library, Table 5
  λmax Absorp.: 471 nm
  λmax Emission: 567 nm
